{
  "source": "patent US20250304620A1",
  "about": "“ANTIMICROBIAL PEPTIDE AND APPLICATION THEREOF” (priority 2023, published 2025)",
  "key": {"[1]": {"test_system": "Pseudomonas aeruginosa ATCC 27853", "assay": "Injectable formulations on mice infected with peritonitis", "assay_type": "in vivo, ICR mice", "details": "twice a day for 3 days; for Number of mice that died on each day after infection: day 1 / Number of mice that died on each day after infection: day 2 / Number of mice that died on each day after infection: day 3 / Number of mice that died on each day after infection: day 4 / Number of mice that died on each day after infection: day 5 / Average survival times (Days): n = 10; for Average survival times (Days): observed for 14 d", "in_short": "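Survival readout: deaths and survival time tracked for 14 d. Treatment was tail-vein injection by body weight, twice a day for 3 consecutive days, starting right after intraperitoneal challenge with 0.2 mL of 1×10^9 CFU/mL P. aeruginosa ATCC 27853 in male and female ICR mice.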"}, "[2]": {"test_system": "Staphylococcus aureus (NRS 384)", "assay": "microbe, parasite or virus in culture", "assay_type": "cell-based", "details": "Staphylococcus aureus (NRS 384)", "in_short": "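MICs were read against S. aureus strain NRS 384 using twofold serial dilution by CLSI microdilution rules. Levofloxacin and Cbf-K16 were the reference controls, and the test was repeated 5 times in parallel.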"}, "[3]": {"test_system": "Escherichia coli ATCC 25922", "assay": "Oral formulations on mice with systemic bacterial infection", "assay_type": "in vivo, ICR mice", "details": "three times a day for 7 days; for Number of mice that died on each day after infection: day 4 / Number of mice that died on each day after infection: day 5 / Number of mice that died on each day after infection: day 6 / Number of mice that died on each day after infection: day 7 / Number of mice that died on each day after infection: day 8 / Average survival times (Days): n = 10; for Average survival times (Days): observed for 14 d", "in_short": "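Survival time and deaths were logged over a 14 d observation after oral gavage dosing (by body weight, thrice daily, 7 days, starting right after infection). Model: mixed-sex ICR mice, n=10 per group, intraperitoneal injection of E. coli ATCC 25922 suspension (0.2 mL, 1×10^7 CFU/mL).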"}, "[4]": {"test_system": "Bacillus subtilis ATCC 6633", "assay_type": "cell-based", "in_short": "(§1)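 CLSI microdilution, serial 2-fold dilutions; MIC read-out; n = 5 parallel repeats.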"}, "[5]": {"test_system": "Escherichia coli ATCC 25922", "assay_type": "cell-based", "in_short": "as §1"}, "[6]": {"test_system": "Candida tropicalis ATCC 750", "assay_type": "cell-based", "in_short": "as §1"}, "Candida krusei ATCC 6258": {"test_system": "Candida krusei ATCC 6258", "assay_type": "cell-based", "in_short": "as §1"}, "[7]": {"test_system": "Staphylococcus aureus ATCC 25923", "assay_type": "cell-based", "in_short": "as §1"}, "[8]": {"test_system": "Klebsiella pneumoniae ATCC 700603", "assay_type": "cell-based", "in_short": "as §1"}, "[9]": {"test_system": "Trichophyton ATCC MYA-4438", "assay_type": "cell-based", "in_short": "as §1"}, "[10]": {"test_system": "Pseudomonas aeruginosa ATCC 27853", "assay_type": "cell-based", "in_short": "as §1"}, "[11]": {"test_system": "Candida albicans ATCC MYA-2876", "assay_type": "cell-based", "in_short": "as §1"}, "[12]": {"test_system": "Salmonella typhimurium ATCC 14028", "assay_type": "cell-based", "in_short": "as §1"}, "[13]": {"test_system": "Candida glabrata ATCC 15126", "assay_type": "cell-based", "in_short": "as §1"}, "[14]": {"test_system": "Corynebacterium ATCC 7715", "assay_type": "cell-based", "in_short": "as §1"}, "Enterococcus ATCC 29212": {"test_system": "Enterococcus ATCC 29212", "assay_type": "cell-based", "in_short": "as §1"}, "[15]": {"test_system": "Serratia marcescens ATCC 29021", "assay_type": "cell-based", "in_short": "as §1"}, "Candida utilis ATCC 9950": {"test_system": "Candida utilis ATCC 9950", "assay_type": "cell-based", "in_short": "as §1"}, "[16]": {"test_system": "Staphylococcus aureus (NRS 384)", "details": "MIC vs Staphylococcus aureus (NRS 384) after trypsin treatment 1:10 (w/w), 37° C., 3 h", "protocol": "Trypsin (250 U/mg, pH=8.0) and AMPs (LV-1 to LV-30) were mixed in a ratio of 1:10 (w/w) and added to a reaction buffer (0.2 M sodium phosphate, 1 mM CaCl2), pH 7.5), and then incubated at 37° C. for 3 h."}},
  "note": "Marks after values point to notes of the source that are not given here. Non-standard residues stand in square brackets, D forms with d. PEG500 = polyethylene glycol 500, conjugated to the C-terminus; 2Nal = N[C@@H](Cc1ccc2ccccc2c1)C(=O)O",
  "data": [
    {"substance": "Ac-RKLLXRLKXRK-PEG500 [LV-27] (Ac-RKLL[2Nal]RLK[2Nal]RK-PEG500)", "values": [
      {"measurement": "Number of mice that died on each day after infection: day 1", "setting": "[1]; 0.2 mg/kg via tail vein", "value": 2, "unit": "Mouse"},
      {"measurement": "Number of mice that died on each day after infection: day 2", "setting": "[1]; 0.2 mg/kg via tail vein", "value": 2, "unit": "Mouse"},
      {"measurement": "Number of mice that died on each day after infection: day 3", "setting": "[1]; 0.2 mg/kg via tail vein", "value": 0, "unit": "Mouse"},
      {"measurement": "Number of mice that died on each day after infection: day 4", "setting": "[1]; 0.2 mg/kg via tail vein", "value": 1, "unit": "Mouse"},
      {"measurement": "Number of mice that died on each day after infection: day 5", "setting": "[1]; 0.2 mg/kg via tail vein", "value": 1, "unit": "Mouse"},
      {"measurement": "Average survival times (Days)", "setting": "[1]; 0.2 mg/kg via tail vein", "value": "7.1** Days"},
      {"measurement": "Number of mice that died on each day after infection: day 1", "setting": "[1]; 1 mg/kg via tail vein", "value": 1, "unit": "Mouse"},
      {"measurement": "Number of mice that died on each day after infection: day 2", "setting": "[1]; 1 mg/kg via tail vein", "value": 1, "unit": "Mouse"},
      {"measurement": "Number of mice that died on each day after infection: day 3", "setting": "[1]; 1 mg/kg via tail vein", "value": 0, "unit": "Mouse"},
      {"measurement": "Number of mice that died on each day after infection: day 4", "setting": "[1]; 1 mg/kg via tail vein", "value": 1, "unit": "Mouse"},
      {"measurement": "Number of mice that died on each day after infection: day 5", "setting": "[1]; 1 mg/kg via tail vein", "value": 0, "unit": "Mouse"},
      {"measurement": "Average survival times (Days)", "setting": "[1]; 1 mg/kg via tail vein", "value": "10.5**** Days"},
      {"measurement": "Number of mice that died on each day after infection: day 1", "setting": "[1]; 5 mg/kg via tail vein", "value": 0, "unit": "Mouse"},
      {"measurement": "Number of mice that died on each day after infection: day 2", "setting": "[1]; 5 mg/kg via tail vein", "value": 3, "unit": "Mouse"},
      {"measurement": "Number of mice that died on each day after infection: day 3", "setting": "[1]; 5 mg/kg via tail vein", "value": 0, "unit": "Mouse"},
      {"measurement": "Number of mice that died on each day after infection: day 4", "setting": "[1]; 5 mg/kg via tail vein", "value": 1, "unit": "Mouse"},
      {"measurement": "Number of mice that died on each day after infection: day 5", "setting": "[1]; 5 mg/kg via tail vein", "value": 0, "unit": "Mouse"},
      {"measurement": "Average survival times (Days)", "setting": "[1]; 5 mg/kg via tail vein", "value": "9.4*** Days"},
      {"measurement": "survival time of mice infected with Pseudomonas aeruginosa", "setting": "[1]; tail vein, observed 14 d", "value": "superior to those of the Levofloxacin group"},
      {"measurement": "MIC against Staphylococcus aureus (NRS 384)", "setting": "[2]", "value": 1, "unit": "µg/mL"},
      {"measurement": "Number of mice that died on each day after infection: day 4", "setting": "[3]; 0.2 mg/kg gavage", "value": 1, "unit": "Mouse"},
      {"measurement": "Number of mice that died on each day after infection: day 5", "setting": "[3]; 0.2 mg/kg gavage", "value": 1, "unit": "Mouse"},
      {"measurement": "Number of mice that died on each day after infection: day 6", "setting": "[3]; 0.2 mg/kg gavage", "value": 2, "unit": "Mouse"},
      {"measurement": "Number of mice that died on each day after infection: day 7", "setting": "[3]; 0.2 mg/kg gavage", "value": 1, "unit": "Mouse"},
      {"measurement": "Number of mice that died on each day after infection: day 8", "setting": "[3]; 0.2 mg/kg gavage", "value": 0, "unit": "Mouse"},
      {"measurement": "Average survival times (Days)", "setting": "[3]; 0.2 mg/kg gavage", "value": "9.8** Days"},
      {"measurement": "Number of mice that died on each day after infection: day 4", "setting": "[3]; 1 mg/kg gavage", "value": 0, "unit": "Mouse"},
      {"measurement": "Number of mice that died on each day after infection: day 5", "setting": "[3]; 1 mg/kg gavage", "value": 1, "unit": "Mouse"},
      {"measurement": "Number of mice that died on each day after infection: day 6", "setting": "[3]; 1 mg/kg gavage", "value": 1, "unit": "Mouse"},
      {"measurement": "Number of mice that died on each day after infection: day 7", "setting": "[3]; 1 mg/kg gavage", "value": 0, "unit": "Mouse"},
      {"measurement": "Number of mice that died on each day after infection: day 8", "setting": "[3]; 1 mg/kg gavage", "value": 1, "unit": "Mouse"},
      {"measurement": "Average survival times (Days)", "setting": "[3]; 1 mg/kg gavage", "value": "11.7**** Days"},
      {"measurement": "Number of mice that died on each day after infection: day 4", "setting": "[3]; 5 mg/kg gavage", "value": 0, "unit": "Mouse"},
      {"measurement": "Number of mice that died on each day after infection: day 5", "setting": "[3]; 5 mg/kg gavage", "value": 2, "unit": "Mouse"},
      {"measurement": "Number of mice that died on each day after infection: day 6", "setting": "[3]; 5 mg/kg gavage", "value": 1, "unit": "Mouse"},
      {"measurement": "Number of mice that died on each day after infection: day 7", "setting": "[3]; 5 mg/kg gavage", "value": 0, "unit": "Mouse"},
      {"measurement": "Number of mice that died on each day after infection: day 8", "setting": "[3]; 5 mg/kg gavage", "value": 0, "unit": "Mouse"},
      {"measurement": "Average survival times (Days)", "setting": "[3]; 5 mg/kg gavage", "value": "11.4**** Days"},
      {"measurement": "survival time of mice infected with Escherichia coli", "setting": "[3]; gavage, observed 14 d", "value": "superior to those of the Levofloxacin group"},
      {"measurement": "MIC Bacillus subtilis ATCC 6633", "setting": "[4]", "value": 2, "unit": "µg/mL"},
      {"measurement": "MIC Escherichia coli ATCC 25922", "setting": "[5]", "value": 1, "unit": "µg/mL"},
      {"measurement": "MIC Candida tropicalis ATCC 750", "setting": "[6]", "value": 4, "unit": "µg/mL"},
      {"measurement": "MIC Candida krusei ATCC 6258", "setting": "Candida krusei ATCC 6258", "value": 8, "unit": "µg/mL"},
      {"measurement": "MIC Staphylococcus aureus ATCC 25923", "setting": "[7]", "value": 1, "unit": "µg/mL"},
      {"measurement": "MIC Klebsiella pneumoniae ATCC 700603", "setting": "[8]", "value": 8, "unit": "µg/mL"},
      {"measurement": "MIC Trichophyton ATCC MYA-4438", "setting": "[9]", "value": 8, "unit": "µg/mL"},
      {"measurement": "MIC Pseudomonas aeruginosa ATCC 27853", "setting": "[10]", "value": 1, "unit": "µg/mL"},
      {"measurement": "MIC Candida albicans ATCC MYA-2876", "setting": "[11]", "value": 8, "unit": "µg/mL"},
      {"measurement": "MIC Salmonella typhimurium ATCC 14028", "setting": "[12]", "value": 2, "unit": "µg/mL"},
      {"measurement": "MIC Candida glabrata ATCC 15126", "setting": "[13]", "value": 8, "unit": "µg/mL"},
      {"measurement": "MIC Corynebacterium ATCC 7715", "setting": "[14]", "value": 8, "unit": "µg/mL"},
      {"measurement": "MIC Enterococcus ATCC 29212", "setting": "Enterococcus ATCC 29212", "value": 2, "unit": "µg/mL"},
      {"measurement": "MIC Serratia marcescens ATCC 29021", "setting": "[15]", "value": 4, "unit": "µg/mL"},
      {"measurement": "MIC Candida utilis ATCC 9950", "setting": "Candida utilis ATCC 9950", "value": 16, "unit": "µg/mL"},
      {"measurement": "Trypsin MIC", "setting": "[16]", "value": 1, "unit": "µg/mL"}
    ]}
  ]
}
